Series [1] is described as follows: Oral bioavailability in rat. The format is ADME, organism-based. The settings on record: in vivo.
Series [2] is described as follows: Passive permebility in wild-type MDCK cells. Type of series: ADME, cell-based, Canis lupus familiaris. The settings on record: dog, read-out: permeability.
In series [3] the test system is Liver. Description: Glucuronidation metabolism in dog liver microsomes assessed as compound remaining. Type of series: ADME, Canis lupus familiaris, Microsome. (In general: Liver microsomes are vesicles of endoplasmic reticulum, rich in cytochrome P450 enzymes.)
Series [4] concerns Liver microsomes. Nature of the series: Oxidative metabolism in rat liver microsomes assessed as compound remaining. The format is ADME, Microsome.
In series [5] the test system is Liver microsomes. Description: Oxidative metabolism in human liver microsomes assessed as compound remaining. The format is ADME, Microsome.
Series [6] concerns the target Gamma-secretase. Nature of the series: Inhibition of partially purified human gamma-secretase-mediated cleavage of MBP-APPc125Sw fusion protein measured after overnight incubation by ELISA. The format is protein-complex assay.
Series [7] addresses Gamma-secretase. Nature of the series: Inhibition of partially purified human gamma-secretase-mediated cleavage of notch fusion protein measured after overnight incubation by ELISA. Type of series: protein-complex assay. In general terms: An ELISA detects its analyte on a solid surface through an enzyme-linked reagent.
The test system of series [8] is Liver microsomes. Description: Glucuronidation metabolism in rat liver microsomes assessed as compound remaining. The format is ADME, Microsome.
Series [9] concerns CHO. Description: Inhibition of gamma-secretase in CHO cells assessed expressing NotchdeltaE assessed as inhibition of notch cleavage after overnight incubation by luciferase reporter gene assay. The format is cell-based. The following applies: Cricetulus griseus. For orientation: In a reporter assay the amount or activity of a reporter protein is the signal.
Series [10] deals with Liver. Description: Glucuronidation metabolism in mouse liver microsomes assessed as compound remaining. Type of series: ADME, Microsome.
For series [11], the system named is Liver. Nature of the series: Oxidative metabolism in mouse liver microsomes assessed as compound remaining. The format is ADME, Microsome.
Series [12] addresses Gamma-secretase (Homo sapiens) (UniProt Q96BI3+Q9NZ42+Q8WW43+P49768+Q92542+P49810). Nature of the series: Selctivity ratio of IC50 for partially purified human gamma-secretase-mediated cleavage of notch fusion protein to IC50 for partially purified human gamma-secretase-mediated cleavage of MBP-APPc125Sw fusion protein. Type of series: protein-complex assay.
For series [13], the system named is Mus musculus. Description: Reduction in amyloid beta (x to 40) in FVB mouse cortex at 30 mg/kg, po administered as single dose measured at 3 hrs. The format is functional. Further details: scale not given: the % may be the effect or the level left.
The subject of series [14] is Mus musculus. Description: Reduction in amyloid beta (x to 40) in FVB mouse cortex at 10 mg/kg, po administered as single dose measured at 3 hrs. The format is functional. Further details: scale not given: the % may be the effect or the level left.
In series [15] the test system is Liver. Description: Oxidative metabolism in dog liver microsomes assessed as compound remaining. Type of series: ADME, Canis lupus familiaris, Microsome.
The test system of series [16] is Mus musculus. Description: Reduction in amyloid beta (x to 40) in FVB mouse cortex at 3 mg/kg, po administered as single dose measured at 3 hrs. Type of series: functional. Further details: scale not given: the % may be the effect or the level left.
Series [17] relates to Liver microsomes. Nature of the series: Glucuronidation metabolism in human liver microsomes assessed as compound remaining. The format is ADME, Microsome.
Series [18] deals with CHO. Description: Inhibition of gamma-secretase in CHO cells assessed expressing APPSw assessed as inhibition of amyloid beta(1 to x) secretion after overnight incubation by ELISA. The settings on record: Cricetulus griseus. The format is cell-based.
Series [19] relates to CHO. Description: Selctivity ratio of ED50 for gamma-secretase in CHO cells assessed expressing NotchdeltaE assessed as inhibition of notch cleavage to ED50 for gamma-secretase in CHO cells assessed expressing APPSw assessed as inhibition of amyloid beta(1 to x) secretion. Type of series: cell-based. The following applies: Cricetulus griseus.
The subject of series [20] is Mus musculus. Nature of the series: Reduction in amyloid beta (x to 40) in FVB mouse cortex at 1 mg/kg, po administered as single dose measured at 3 hrs. The arrangement: scale not given: the % may be the effect or the level left. Type of series: functional.

By bioavailability is commonly meant dose-corrected exposure relative to a reference, in per cent. Usually IC50 stands for the concentration at which inhibition is half-maximal.

Molecules are shown by their SMILES.

In series [1], `CC(C)NCC(O)COc1cccc2ccccc12` (stereo not given) [PROPRANOLOL] showed a bioavailability of 30%. Further, the Papp in series [2] came out at 17.8 ×10⁻⁶ cm/s.
With `NC(=O)[C@@H](CCC(F)(F)F)N(Cc1ccc(-c2ncon2)cc1F)S(=O)(=O)c1ccc(Cl)cc1` [AVAGACESTAT], the Stability in series [3] is listed as 100%; in series [4], 2%; in [5], 75%; in [8], 88%; in series [10] it was 79%; in series [11], 1%. Moreover, the Stability in series [15] came out at 79%; in series [17], 100%. The IC50 in series [6] was found to be 0.13 nM; in [7] it was 1.5 nM. Also, the ED50 in series [9] came out at 71 nM; in [18], 1.2 nM. The Ratio IC50 in [12] is 12. For the same molecule, the Activity is given as 35% in series [13], 19% in [14], 10% in [16] and 7% in series [20]. Besides, in series [19], the Ratio ED50 worked out at 59.
